Laboratory results as given in patent publication US20210330611A1, “THERAPY FOR NEUROLOGICAL DISEASES/DISORDERS” (priority 2020, published 2021).

Tests used:
[1] = test system: LPS injection in the substantia nigra; assay: LPS-induced neurodegeneration in substantia nigra, TH and Iba-1 immunohistochemistry; type: in vivo, mouse
Procedure: Stereotactic LPS injection and drug treatment. Mice were anaesthetized with isoflurane and placed in a stereotactic apparatus (David Kopf Instruments). LPS (Sigma-Aldrich) was dissolved in endotoxin-free distilled water (HyClone) and was diluted to 1 μg/ml with PBS. LPS (2 μl of 1 μg/ml) or PBS was slowly injected (0.3 μl/min) using a 10-μl Hamilton syringe attached to a 33-G needle into the substantia nigra at coordinates (anteroposterior, 3.0 mm; mediolateral, 1.3 mm; dorsoventral, 4.7 mm from the bregma, according to Paxinos and Watson) Animals received acivicin (5 mg/kg) or saline intraperitoneally beginning 5 days before LPS injection and for 7 days after LPS injection. After 12 h of the LPS injection, the substantia nigra area was immediately collected on ice and kept at −80° C. for later analysis of GGT activity. After 7 d of the LPS injection, mice were perfused with 4% PFA, and the brains were post-fixed in 4% PFA overnight at 4° C. […] Images were acquired with all-in-one BZ-X700 fluorescence microscope. Images were quantified using NIH ImageJ (version 1.50) by blinded observers.

[2] = test system: MOG35-55 EAE; assay: Active MOG35-55 EAE, clinical scores; type: in vivo, mouse; conditions: mouse, in vivo, 5 mg/kg
[3] = test system: chronic NOD MOG35-55 EAE; assay: Chronic MOG35-55 EAE in NOD mice, clinical scores; type: in vivo, mouse; conditions: therapeutic, daily from day 80 to day 113, FIG. 8b
[4] = test system: 2D2 T cells; assay: Antigen-specific T-cell proliferation (BrdU, 2D2 T cells with MOG35-55-pulsed BMDMs); type: cell-based, mouse; conditions: 5, 0.5 or 0.05 μM, FIG. 14G, H
Procedure: T-cell proliferation assay. For antigen-specific T cell proliferation, näive CD4+ T cells were magnetically sorted from the TCR-transgenic 2D2 mice using naïve CD4+ T cell isolation kits (Miltenyi Biotec). […]. For non-antigen-specific T cell proliferation, naïve CD4^+ T cells were treated with acivicin and stimulated with mouse T-activator CD3/CD28 Dynabeads (Thermo Fisher Scientific) for 3 d. Cells were then fixed, permeabilized, and stained with FITC-conjugated anti-BrdU (BrdU Flow Kits, BD Biosciences).

[5] = test system: primary microglia; type: cell-based, rat; conditions: 48 h, FIG. 12
Procedure: FIGS. 12A-E. Effects of acivicin on microglia, macrophage and whole blood cell numbers. a, Representative images showing morphology and density of primary microglia treated with vehicle or acivicin for 48 h stained with nuclei marker Hoechst or CellMask Red Whole Cell Stain. Quantification of the total number of microglia. Data are representative of one experiment with technical replicates (open symbols). b, Representative confocal images showing morphology and density of control- and acivicin-treated BMDMs treated for 24 h. Scale bar, 100 μm. Insets depict digitally zoomed in areas of regions of interest. Quantification of the total number of BMDMs in the field of view. […] Cell viability of single CD45^+ cells was assessed by Sytox blue live/dead nuclei stain. Quantification of percent cell viability of CD45^+ BMDMs treated with acivicin or left untreated. Data are from 2 independent experiments with n=4 mice per group (mean±s.d.). d, Quantification of complete blood count analysis of white blood cells (WBCs), red blood cells (RBC), platelets (PLT) (left) and composition of WBCs (right) of blood samples from healthy mice treated with saline or acivicin for 10 days. […] Quantification of total microglia cell numbers in healthy mice treated with acivicin or saline. […]
Image-based HTS of small molecule inhibitors of microglia activation. […] The plates were stored in PBS for readout by imaging.

N[C@H](C(=O)O)[C@@H]1CC(Cl)=NO1 [Acivicin, (2S)-2-amino-2-[(5S)-3-chloro-4,5-dihydro-1,2-oxazol-5-yl] acetic acid]
microglial activation (Iba-1) ([1]; 7 d after LPS, FIG. 15c): decreased
dopaminergic neuronal survival (TH) ([1]; mouse, in vivo): improved
disease onset and severity [2]: delayed
progression, clinical signs [3]: suppressed progression
encephalitogenic T cell proliferation (BrdU) with APCs [4]: suppressed
microglia cell number in vitro [5]: did not affect
